Experimental data reported in US20130259830A1, “CRTH2 MODULATORS” (Ironwood Pharmaceuticals, Inc., priority 2010, published 2013).

Legend:
CRTH2 [1] = biological target: T1, CRTH2 (Homo sapiens, UniProt Q9Y5Y4); test: DPBS CD11b antagonist assay (CD11b expression in eosinophils challenged with 15R-Methyl-PGD2); format: cell-based; details: polymorphonuclear cells in PBS with CaCl2/MgCl2; agonist 15R-Methyl-PGD2 10 nM; eosinophils gated by flow cytometry
T1 construct: endogenous in cells; host or cells: eosinophils in human whole blood
T1 sequence (Q9Y5Y4 1-395): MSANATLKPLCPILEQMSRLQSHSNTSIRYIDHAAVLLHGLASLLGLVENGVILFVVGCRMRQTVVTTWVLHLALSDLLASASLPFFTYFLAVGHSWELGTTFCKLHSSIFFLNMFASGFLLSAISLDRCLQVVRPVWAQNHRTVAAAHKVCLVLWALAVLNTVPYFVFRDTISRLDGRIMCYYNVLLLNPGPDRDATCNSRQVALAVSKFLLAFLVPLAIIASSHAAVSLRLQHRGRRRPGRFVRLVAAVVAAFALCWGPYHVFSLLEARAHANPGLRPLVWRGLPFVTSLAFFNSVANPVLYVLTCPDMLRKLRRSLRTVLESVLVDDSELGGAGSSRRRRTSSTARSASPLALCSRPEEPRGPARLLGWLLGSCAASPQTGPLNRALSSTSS
Procedure: DPBS CD111b Antagonist Assay.
The potential CRTH2 antagonist, activity of certain compounds was tested using a CD11b expression assay using essentially the method described by Monneret et al. (J Pharmacol Exp Ther 304:349-55, 2003). Briefly, polymorphonuclear cells (0.5 ml; 10^6/ml cells) in PBS containing 0.9 mM CaCl2 and 0.5 mM MgCl2) were preincubated with various concentrations of test compounds at room temperature for 10 minutes before they were challenged with the agonist 15R-Methyl-PGD2 (10 nM). The incubations were terminated by the addition of ice-cold FACSFlow (BD Biosciences; Cat#342003) and centrifugation (400 g for 5 minutes at 4° C.). The cells were then incubated for 30 minutes at 4° C. with a mixture of PE-labeled mouse anti-human VLA-4 (5 μl; BD Biosciences) and FITC-labeled mouse anti-human CD11b (10 μl; Beckman Coulter). The cells were then incubated with Optilyse C (0.25 ml; Beckman Coulter) for 15 minutes, centrifuged, and then fixed in PBS (0.4 ml; calcium and magnesium free) containing 1% formaldehyde. The distribution of fluorescence intensities among 60,000 cells was measured by flow cytometry. Eosinophils were gated out on the basis of their granularity (high side scatter) and labeling with VLA-4 (PE fluorescence). CD11b was then measured in the eosinophil region on the basis of fluorescence due to FITC. All data were corrected for the value obtained for the corresponding isotope control antibody.

CRTH2 [2] = biological target: T1, CRTH2; test: Human whole blood CD11b antagonist assay (CD11b expression in eosinophils challenged with 15-R-methyl-PGD2); format: cell-based; details: 37° C. 10 minutes preincubation, agonist 15R-Methyl-PGD2 10 nM, eosinophils gated by flow cytometry
Procedure: Human Whole Blood […] Antagonist Assay (Modified from Nicholson, et al. Pulmonary Pharmacology and Therapeutics: 20 (2007); 52-59).
The potential CRTH2 antagonist activity of certain compounds was tested in human whole blood using an assay that tests the ability of the compounds to block the CD11b expression in eosinophils by 15-R-methyl-PGD2. A CRTH2 antagonist should block CD11b expression by subsequently added 15-Methyl-PGD2. Human whole blood (200 μL) was incubated at 37° C. for 10 minutes in the presence of various concentrations of test compounds before being challenged with the agonist 1-5R-Methyl-PGD2 (10 nM). Reactions were terminated by the addition of ice-cold PBS+0.5% BSA+2 mM EDTA (1 mL) and centrifugation (300×g for 5 minutes at 4° C.) Cells were then incubated at 4° C. for 10 min in the presence of human IgG. Cells were then incubated for 30-45 min with a mixture of PE-Cy5-labeled mouse anti-human CD16 (10 ul; BD Biosciences) and FITC-labeled mouse anti-human CD11b (10 μL; Beckman Coulter.) After rinsing (1 mL ice-cold PBS+0.5% BSA+2 mM EDTA), red blood cells were lysed by the addition of 1 mL ice-cold H2O to the cell pellet for 30 sec-1 min immediately followed by the addition of 3.5% NaCl (300 μL.) Cells were then rinsed (2×−1 ml ice cold PBS+0.5% BSA+2m MEDTA) and fixed in PBS containing 1% formaldehyde. The distribution of fluorescence intensities was measured by flow cytometry. Eosinophils were gated out on the basis of their granularity (high side scatter) and absence of CD-16. CD11b was then measured on this eosinophil population on the basis of fluorescence due to FITC.

| SMILES | IC50 (CRTH2 [1]) | IC50 (CRTH2 [2]) |
| --- | --- | --- |
| Cc1c(Cc2ccccc2NS(=O)(=O)c2ccc(F)cc2F)c2c(n1CC(=O)O)CC(C)(C)CC2=O [Compound I-22, 2-(3-(2-(2,4-Difluorophenylsulfonamido)benzyl)-2,6,6-trimethyl-4-oxo-4,5,6,7-tetrahydro-1H-indol-1-yl)acetic acid] | < 1 nM | 20 to 100 nM |
| Cc1c(Cc2cccc(N(C)S(=O)(=O)N3CCCC3)c2)c2c(n1CC(=O)O)CC(C)(C)CC2=O [Compound I-51, 2-(2,6,6-Trimethyl-3-(3-(N-methylpyrrolidine-1-sulfonamido)benzyl)-4-oxo-4,5,6,7-tetrahydro-1H-indol-1-yl)acetic acid] | 100 to 500 nM | > 3000 nM |
| CCOC(=O)Cn1c(C)c(Cc2cccnc2S(=O)(=O)c2cccc(OC)c2)c2c1CC(C)(C)CC2=O [Compound I-11, Ethyl 2-(3-((2-(3-methoxyphenylsulfonyl)pyridin-3-yl)methyl)-2,6,6-trimethyl-4-oxo-4,5,6,7-tetrahydro-1H-indol-1-yl)acetate] | 100 to 500 nM | 500 to 3000 nM |
| CCN(c1ccccc1Cc1c2c(n(CC(=O)O)c1C)CC(C)(C)CC2=O)S(=O)(=O)c1ccc(C)cc1 [Compound I-38, 2-(3-(2-(N-Ethyl-4-methylphenylsulfonamido)benzyl)-2,6,6-trimethyl-4-oxo-4,5,6,7-tetrahydro-1H-indol-1-yl)acetic acid] | 1 to 5 nM | 500 to 3000 nM |
| Cc1ccc(S(=O)(=O)N(C)c2ccccc2Cc2c3c(n(CC(=O)O)c2C)CC(C)(C)CC3=O)cc1 [Compound I-33, 2-(3-(2-(N,4-dimethylphenylsulfonamido)benzyl)-2,6,6-trimethyl-4-oxo-4,5,6,7-tetrahydro-1H-indol-1-yl)acetic acid] | 1 to 5 nM | 100 to 500 nM |
| Cc1c(Cc2ccccc2S(=O)(=O)N2CCCC2)c2c(n1CC(=O)O)CC(C)(C)C/C2=N\OCc1ccccc1 [Compound I-31, (E)-2-(4-(Benzyloxyimino)-2,6,6-trimethyl-3-(2-(pyrrolidin-1-ylsulfonyl)benzyl)-4,5,6,7-tetrahydro-1H-indol-1-yl)acetic acid] | 1 to 5 nM | 100 to 500 nM |
| CCOC(=O)Cn1c(C)c(Cc2cccnc2S(=O)(=O)c2ccc(F)cc2)c2c1CC(C)(C)CC2=O [Compound I-8, ethyl 2-(3-((2-(4-fluorophenylsulfonyl)pyridin-3-yl)methyl)-2,6,6-trimethyl-4-oxo-4,5,6,7-tetrahydro-1H-indol-1-yl)acetate] | 20 to 100 nM | 500 to 3000 nM |
| Cc1c(Cc2ccccc2N(C)S(=O)(=O)c2ccccc2)c2c(n1CC(=O)O)CC(C)(C)CC2=O [Compound I-35, 2-(2,6,6-Trimethyl-3-(2-(N-methylphenylsulfonamido)benzyl)-4-oxo-4,5,6,7-tetrahydro-1H-indol-1-yl)acetic acid] | 1 to 5 nM | 20 to 100 nM |
| Cc1ccc(S(=O)(=O)N(C)c2cccc(Cc3c4c(n(CC(=O)O)c3C)CC(C)(C)CC4=O)c2)cc1 [Compound I-45, 2-(3-(3-(N,4-Dimethylphenylsulfonamido)benzyl)-2,6,6-trimethyl-4-oxo-4,5,6,7-tetrahydro-1H-indol-1-yl)acetic acid] | 100 to 500 nM | > 3000 nM |
| Cc1c(Cc2ccccc2S(=O)(=O)N2CCCC2)c2c(n1CC(=O)O)CC(C)(C)C/C2=N\OC(C)(C)C [Compound I-30, (E)-2-(4-(tert-Butoxyimino)-2,6,6-trimethyl-3-(2-(pyrrolidin-1-ylsulfonyl)benzyl)-4,5,6,7-tetrahydro-1H-indol-1-yl)acetic acid] | 1 to 5 nM | 100 to 500 nM |
| Cc1c(Cc2cc3ccccc3n2S(=O)(=O)c2ccccc2)c2c(n1CC(=O)O)CCC(C)(C)C2 [Compound I-1, 2-(2,5,5-trimethyl-3-((1-(phenylsulfonyl)-1H-indol-2-yl)methyl)-4,5,6,7-tetrahydro-1H-indol-1-yl)acetic acid] | < 1 nM | – |
| Cc1c(Sc2ccccc2N(C)S(=O)(=O)c2ccccc2)c2c(n1CC(=O)O)CC(C)(C)CC2 [Compound I-53, 2-(2,6,6-trimethyl-3-(2-(N-methylphenylsulfonamido)phenylthio)-4,5,6,7-tetrahydro-1H-indol-1-yl)acetic acid] | – | 500 to 3000 nM |

Further lines, results first:

| IC50 (CRTH2 [1]) | IC50 (CRTH2 [2]) | SMILES |
| --- | --- | --- |
| < 1 nM | 5 to 20 nM | Cc1c(Cc2cccnc2S(=O)(=O)c2ccc(Cl)cc2)c2c(n1CC(=O)O)CC(C)(C)CC2=O [Compound I-15, 2-(3-((2-(4-Chlorophenylsulfonyl)pyridin-3-yl)methyl)-2,6,6-trimethyl-4-oxo-4,5,6,7-tetrahydro-1H-indol-1-yl)acetic acid] |
| < 1 nM | 20 to 100 nM | COc1ccc(S(=O)(=O)c2ncccc2Cc2c3c(n(CC(=O)O)c2C)CC(C)(C)CC3=O)cc1F [Compound I-21, 2-(3-((2-(3-Fluoro-4-methoxyphenylsulfonyl)pyridin-3-yl)methyl)-2,6,6-trimethyl-4-oxo-4,5,6,7-tetrahydro-1H-indol-1-yl)acetic acid] |
| 1 to 5 nM | 20 to 100 nM | Cc1c(Cc2ccccc2NS(=O)(=O)N2CCOCC2)c2c(n1CC(=O)O)CC(C)(C)CC2=O [Compound I-49] |
| < 1 nM | 5 to 20 nM | Cc1c(Cc2cccnc2S(=O)(=O)c2ccc(F)cc2)c2c(n1CC(=O)O)CC(C)(C)CC2=O [Compound I-5, 2-(3-((2-(4-fluorophenylsulfonyl)pyridin-3-yl)methyl)-2,6,6-trimethyl-4-oxo-4,5,6,7-tetrahydro-1H-indol-1-yl)acetic acid] |
| 100 to 500 nM | 100 to 500 nM | Cc1c(Cc2cccnc2S(=O)(=O)C2CC2)c2c(n1CC(=O)O)CC(C)(C)CC2=O [Compound I-4, 2-(3-((2-(cyclopropylsulfonyl)pyridin-3-yl)methyl)-2,6,6-trimethyl-4-oxo-4,5,6,7-tetrahydro-1H-indol-1-yl)acetic acid] |
| 5 to 20 nM | 20 to 100 nM | Cc1c(Cc2ccccc2N(C)S(=O)(=O)N2CCCC2)c2c(n1CC(=O)O)CC(C)(C)CC2=O [Compound I-43, 2-(2,6,6-Trimethyl-3-(2-(N-methylpyrrolidine-1-sulfonamido)benzyl)-4-oxo-4,5,6,7-tetrahydro-1H-indol-1-yl)acetic acid] |
| 1 to 5 nM | 20 to 100 nM | Cc1c(Cc2cccnc2S(=O)(=O)c2ccc(F)cc2F)c2c(n1CC(=O)O)CC(C)(C)CC2=O [Compound I-19, 2-(3-((2-(2,4-Difluorophenylsulfonyl)pyridin-3-yl)methyl)-2,6,6-trimethyl-4-oxo-4,5,6,7-tetrahydro-1H-indol-1-yl)acetic acid] |
| 20 to 100 nM | 500 to 3000 nM | CCOC(=O)Cn1c(C)c(Cc2cccnc2S(=O)(=O)c2ccc(C)cc2)c2c1CC(C)(C)CC2=O [Compound I-16, Ethyl 2-(2,6,6-trimethyl-4-oxo-3-((2-tosylpyridin-3-yl)methyl)-4,5,6,7-tetrahydro-1H-indol-1-yl)acetate] |
| 5 to 20 nM | 20 to 100 nM | Cc1c(Cc2ccccc2NS(=O)(=O)N2CCCC2)c2c(n1CC(=O)O)CC(C)(C)CC2=O [Compound I-47] |
| < 1 nM | 5 to 20 nM | Cc1ccc(S(=O)(=O)c2ncccc2Cc2c3c(n(CC(=O)O)c2C)CC(C)(C)CC3=O)cc1 [Compound I-20, 2-(2,6,6-Trimethyl-4-oxo-3-((2-tosylpyridin-3-yl)methyl)-4,5,6,7-tetrahydro-1H-indol-1-yl)acetic acid] |
